The source of these data is patent publication US9163013B2, “Use of 1H-indazole-3-carboxamide compounds as glycogen synthase kinase 3 beta inhibitors” (AZIENDE CHIMICHE RIUNITE ANGELINI FRANCESCO A.C.R.A.F. …, priority 2012, dated 2015).

Structures are written as SMILES. Values joined by “and” are separate entries in the source; they are usually repeats but may differ in a detail not shown here. Equal entries are not always repeated. Structures can show the parent of a compound that is named as a salt. Where two headings read alike, the source gives them in different places. Bounds are passed on as bounds.

One assay addresses human GSK-3β (Homo sapiens (Human), UniProt P49841). In words: Activity on human GSK-3β, substrate phosphorylation measured by LANCE technology. The format is biochemical. As to the method: Activity on human GSK-3β was assessed using the following methods (according to Meijer et al., Chem. Biol., 2003-10:1255-1266).
In a first screening assay, compounds were tested in duplicate at a concentration of 10 μM.
Human recombinant enzyme GSK-3β was incubated for 90 minutes at 22° C. in the presence of compounds or vehicle in a reaction buffer containing ATP plus 100 nM unphosphorylated specific substrate peptide (Ulight-[…]-amide). Substrate phosphorylation was measured by LANCE technology (PerkinElmer, Conn., USA).
The results, reported in the following Table 4, are expressed as a percent of inhibition of control specific activity obtained in the presence of the test compounds (as % inhibition at 10 μm).
In a second assay, the same compounds were assayed at five concentrations ranging from 100 μM to 10 nM with ten-fold dilutions in duplicate. Compounds 1 to 7, 9, 11 and 13 to 26 were tested using the same first assay, compounds 8, 10, 12, and 27 to 31 were tested in another assay based on the binding and displacement of AlexaFluor® 647 labeled, ATP-competitive Kinase inhibitor scaffold using LanthaScreen™ TR-FRET technology Eu Kinase assay packet according to manufacturer's instruction (Life Technologies, Italy).
The IC50 values (concentration causing a half maximal inhibition of control specific activity), reported in table 4, were determined by non-linear regression analysis of the inhibition curves generated with mean replicate values using Hill equation curve fitting.

Another assay has as its target CK1alpha (h) (Homo sapiens (Human), UniProt P48729). As to the kind of experiment: Kinase selectivity panel. The format is biochemical. Conditions: duplicate, read-out: % inhibition of control values, CK1alpha (h). On the procedure: (§1) (a) Compound 1 was tested against a panel of 60 kinases in order to assess its selectivity. The assays were chosen taking into consideration the diversity of assay families.
(§2) Human recombinant kinases were incubated in the presence of specific peptide substrates plus ATP for different times (10, 15, 30, 60 or 90 minutes) at 22° C. Phosphorylated substrate was detected by LANCE or HTRF technology (CISBIO, MA, USA).
(§3) Compound 1 was tested at 10 μM in duplicate.
(§4) The results are expressed as a percent of inhibition of control specific activity obtained in the presence of the test compound 1 and are reported in the following Table 5.
(§5) (b) Compounds 7, 12, 21 and 24 were tested against the same panel of 60 kinases under the same conditions described above for compound 1.
(§6) The results are expressed as a percent of inhibition of control specific activity obtained in the presence of the test compounds and are reported in the following Table 6.

A further assay deals with DCAMKL1 (h) (Homo sapiens (Human), UniProt O15075). In words: Kinase selectivity panel. The format is biochemical. To be noted: duplicate, read-out: % inhibition of control values, DCAMKL1 (h). On the procedure: as §1, §2, §3, §4, §5, §6
DCAMKL1 (h), sequence (O15075 whole entry): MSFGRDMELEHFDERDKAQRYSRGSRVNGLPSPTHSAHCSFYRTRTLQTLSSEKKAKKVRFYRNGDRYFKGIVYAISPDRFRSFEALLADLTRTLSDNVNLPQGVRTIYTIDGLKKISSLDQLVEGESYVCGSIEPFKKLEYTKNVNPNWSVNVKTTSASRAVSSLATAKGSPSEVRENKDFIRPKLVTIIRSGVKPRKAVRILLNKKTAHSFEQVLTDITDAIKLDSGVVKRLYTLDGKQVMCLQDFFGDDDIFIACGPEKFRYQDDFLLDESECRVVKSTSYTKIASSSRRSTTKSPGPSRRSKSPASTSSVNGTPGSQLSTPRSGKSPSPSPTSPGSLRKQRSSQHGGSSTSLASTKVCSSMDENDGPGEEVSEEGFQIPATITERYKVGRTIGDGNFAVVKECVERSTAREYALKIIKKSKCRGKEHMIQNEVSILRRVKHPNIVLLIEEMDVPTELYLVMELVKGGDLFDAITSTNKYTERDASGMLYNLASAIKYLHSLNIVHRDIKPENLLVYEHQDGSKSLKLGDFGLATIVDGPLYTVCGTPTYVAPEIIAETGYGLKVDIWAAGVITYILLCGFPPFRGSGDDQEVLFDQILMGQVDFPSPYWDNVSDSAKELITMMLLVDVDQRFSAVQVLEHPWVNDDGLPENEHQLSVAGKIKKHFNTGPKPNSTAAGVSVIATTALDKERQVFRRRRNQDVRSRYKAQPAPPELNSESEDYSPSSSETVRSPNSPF
Another assay concerns the target DLK1 (h) (MAP3K12) (Homo sapiens (Human), UniProt Q12852). As to the kind of experiment: Kinase selectivity panel. The format is biochemical. Conditions: duplicate, read-out: % inhibition of control values, DLK1 (h) (MAP3K12). On the procedure: as §1, §2, §3, §4, §5, §6
A further assay concerns the target ERK1 (h) (Homo sapiens (Human), UniProt P27361). As to the kind of experiment: Kinase selectivity panel. The class given is biochemical. To be noted: duplicate, read-out: % inhibition of control values, ERK1 (h). As to the method:
as §1, §2, §3, §4, §5, §6

The next assay addresses EphB2 kinase (h) (Homo sapiens (Human), UniProt P29323). In words: Kinase selectivity panel. The class given is biochemical. Conditions: duplicate, read-out: % inhibition of control values, EphB2 kinase (h). On the procedure:
as §1, §2, §3, §4, §5, §6

A further assay concerns the target FGFR1 kinase (h) (Homo sapiens (Human), UniProt P11362). In words: Kinase selectivity panel. Conditions: duplicate, read-out: % inhibition of control values, FGFR1 kinase (h). The format is biochemical. On the procedure: as §1, §2, §3, §4, §5, §6
For a further assay, the target named is Fyn kinase (h) (Homo sapiens (Human), UniProt P06241). As to the kind of experiment: Kinase selectivity panel. Conditions: duplicate, read-out: % inhibition of control values, Fyn kinase (h). The class given is biochemical. As to the method: as §1, §2, §3, §4, §5, §6
Another assay addresses GRK3/BARK2 (h) (ADRBK2) (Homo sapiens (Human), UniProt P35626). As to the kind of experiment: Kinase selectivity panel. Conditions: duplicate, read-out: % inhibition of control values, GRK3/BARK2 (h) (ADRBK2). The class given is biochemical. As to the method:
as §1, §2, §3, §4, §5, §6

The target of another assay is HGK (h) (MAP4K4) (Homo sapiens (Human), UniProt O95819). In words: Kinase selectivity panel. The class given is biochemical. To be noted: duplicate, read-out: % inhibition of control values, HGK (h) (MAP4K4). As to the method: as §1, §2, §3, §4, §5, §6
The target in another assay is IRAK4 (h) (Homo sapiens (Human), UniProt Q9NWZ3). In words: Kinase selectivity panel. The format is biochemical. Conditions: duplicate, read-out: % inhibition of control values, IRAK4 (h). As to the method:
as §1, §2, §3, §4, §5, §6

The target in another assay is JAK1 (h) (Homo sapiens (Human), UniProt P23458). As to the kind of experiment: Kinase selectivity panel. The class given is biochemical. Conditions: duplicate, read-out: % inhibition of control values, JAK1 (h). As to the method: as §1, §2, §3, §4, §5, §6
The next assay concerns the target RSK2 (h) (Homo sapiens (Human), UniProt P51812). In words: Kinase selectivity panel. The class given is biochemical. To be noted: duplicate, read-out: % inhibition of control values, RSK2 (h). As to the method: as §1, §2, §3, §4, §5, §6
A further assay addresses TAOK2 (TAO1) (h) (Homo sapiens (Human), UniProt Q9UL54). In words: Kinase selectivity panel. The class given is biochemical. To be noted: duplicate, read-out: % inhibition of control values, TAOK2 (TAO1) (h). As to the method: as §1, §2, §3, §4, §5, §6
A further assay has as its target TRKA (h) (Homo sapiens (Human), UniProt P04629). As to the kind of experiment: Kinase selectivity panel. The format is biochemical. Conditions: duplicate, read-out: % inhibition of control values, TRKA (h). On the procedure: as §1, §2, §3, §4, §5, §6
A further assay addresses CDK2 (h) (cycA) (Homo sapiens (Human), UniProt P24941). As to the kind of experiment: Kinase selectivity panel and IC50 determination. The format is biochemical. To be noted: for inhibition at 10 µM: duplicate, read-out: % inhibition of control values, CDK2 (h) (cycA). On the procedure: as §1, §2, §3, §4
(§7) Compound 1 was also assayed to determine the IC50 values for three different kinases (PCTAIRE1, DYRK1a, and CDK2) in comparison to Gsk3β. The assay was conducted with the same method described above in test I, second assay.
as §5, §6

In the next assay the target is DYRK1a (h) (Homo sapiens (Human), UniProt Q13627). In words: Kinase selectivity panel and IC50 determination. The format is biochemical. Conditions: for inhibition at 10 µM: duplicate, read-out: % inhibition of control values, DYRK1a (h). As to the method:
as §1, §2, §3, §4, §7, §5, §6

The target in another assay is PCTAIRE1 kinase (h) (Homo sapiens (Human), UniProt Q00536). As to the kind of experiment: Kinase selectivity panel and IC50 determination. The class given is biochemical. Conditions: for inhibition at 10 µM: duplicate, read-out: % inhibition of control values, PCTAIRE1 kinase (h). As to the method: as §1, §2, §3, §4, §7, §5, §6
PCTAIRE1 kinase (h), sequence (Q00536 whole entry): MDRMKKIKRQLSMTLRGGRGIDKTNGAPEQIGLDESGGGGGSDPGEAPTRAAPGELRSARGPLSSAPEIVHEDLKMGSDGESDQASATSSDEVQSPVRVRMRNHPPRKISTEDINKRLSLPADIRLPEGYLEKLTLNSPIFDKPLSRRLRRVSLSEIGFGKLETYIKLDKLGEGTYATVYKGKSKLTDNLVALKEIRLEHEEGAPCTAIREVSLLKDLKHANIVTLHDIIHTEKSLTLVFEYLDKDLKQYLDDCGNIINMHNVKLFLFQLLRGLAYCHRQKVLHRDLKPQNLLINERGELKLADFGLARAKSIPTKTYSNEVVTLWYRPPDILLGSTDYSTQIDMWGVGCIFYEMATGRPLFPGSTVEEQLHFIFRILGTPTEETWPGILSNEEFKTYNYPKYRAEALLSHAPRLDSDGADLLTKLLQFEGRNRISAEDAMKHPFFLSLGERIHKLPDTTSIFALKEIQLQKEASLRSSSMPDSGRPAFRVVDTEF
In another assay the test system is AMPKalpha. In words: Kinase selectivity panel. Conditions: 10 μM, duplicate. The format is biochemical, human. As to the method:
as §1, §2, §3, §4, §5, §6

[1] abbreviates: LANCE phosphorylation assay, five concentrations 100 μM to 10 nM, duplicate, read-out: IC50.
Setting [2] is: 10 μM, duplicate, human recombinant GSK-3β, 90 minutes at 22° C.
Setting [3] is: Table 5A, method of test I, second assay.

RSK2 (h), sequence (P51812 whole entry): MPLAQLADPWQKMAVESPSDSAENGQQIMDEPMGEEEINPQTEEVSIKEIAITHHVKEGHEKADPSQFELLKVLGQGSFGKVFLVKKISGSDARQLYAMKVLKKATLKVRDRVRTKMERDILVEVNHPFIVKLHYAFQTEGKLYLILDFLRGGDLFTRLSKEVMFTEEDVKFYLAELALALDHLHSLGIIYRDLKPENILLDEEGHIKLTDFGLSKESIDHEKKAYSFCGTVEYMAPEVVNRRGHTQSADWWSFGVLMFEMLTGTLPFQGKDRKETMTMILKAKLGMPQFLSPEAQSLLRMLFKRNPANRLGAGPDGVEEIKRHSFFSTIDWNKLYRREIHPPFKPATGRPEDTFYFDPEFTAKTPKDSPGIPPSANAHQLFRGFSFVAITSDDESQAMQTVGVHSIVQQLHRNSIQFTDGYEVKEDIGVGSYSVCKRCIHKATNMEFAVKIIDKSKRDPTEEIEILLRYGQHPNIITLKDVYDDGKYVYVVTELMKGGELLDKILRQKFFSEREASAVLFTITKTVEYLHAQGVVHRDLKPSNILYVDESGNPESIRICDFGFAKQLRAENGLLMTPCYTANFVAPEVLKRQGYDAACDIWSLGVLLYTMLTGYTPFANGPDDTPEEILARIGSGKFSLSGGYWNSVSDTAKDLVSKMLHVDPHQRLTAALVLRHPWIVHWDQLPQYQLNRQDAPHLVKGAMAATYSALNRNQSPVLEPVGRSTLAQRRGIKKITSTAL
EphB2 kinase (h), sequence (P29323 19-1055): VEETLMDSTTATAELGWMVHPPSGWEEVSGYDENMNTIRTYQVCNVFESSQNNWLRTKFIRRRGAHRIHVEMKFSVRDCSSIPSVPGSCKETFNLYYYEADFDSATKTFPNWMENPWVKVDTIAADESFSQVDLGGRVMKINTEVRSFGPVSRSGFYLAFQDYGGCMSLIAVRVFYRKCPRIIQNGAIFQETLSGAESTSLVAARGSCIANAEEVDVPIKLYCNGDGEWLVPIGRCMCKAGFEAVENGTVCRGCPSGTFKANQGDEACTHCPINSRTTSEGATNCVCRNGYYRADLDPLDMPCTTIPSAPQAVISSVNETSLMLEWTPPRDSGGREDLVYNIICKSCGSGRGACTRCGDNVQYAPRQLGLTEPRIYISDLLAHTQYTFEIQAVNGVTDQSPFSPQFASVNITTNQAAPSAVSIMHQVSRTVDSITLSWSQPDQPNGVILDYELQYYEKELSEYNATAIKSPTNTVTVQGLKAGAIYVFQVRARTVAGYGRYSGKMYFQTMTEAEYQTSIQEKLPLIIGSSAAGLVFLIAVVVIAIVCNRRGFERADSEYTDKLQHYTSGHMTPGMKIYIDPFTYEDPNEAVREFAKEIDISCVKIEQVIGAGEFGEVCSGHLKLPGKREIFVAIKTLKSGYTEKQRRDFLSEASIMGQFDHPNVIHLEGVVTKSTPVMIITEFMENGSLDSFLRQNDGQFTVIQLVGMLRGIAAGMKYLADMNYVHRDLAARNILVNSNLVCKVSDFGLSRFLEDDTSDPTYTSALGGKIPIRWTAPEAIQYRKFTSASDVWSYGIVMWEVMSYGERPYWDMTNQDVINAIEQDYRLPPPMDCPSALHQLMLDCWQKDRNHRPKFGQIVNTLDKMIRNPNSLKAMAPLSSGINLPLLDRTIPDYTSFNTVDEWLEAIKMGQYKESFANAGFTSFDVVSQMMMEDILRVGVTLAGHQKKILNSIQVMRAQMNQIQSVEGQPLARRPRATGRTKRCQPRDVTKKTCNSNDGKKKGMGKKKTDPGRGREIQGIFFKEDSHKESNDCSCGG
ERK1 (h), sequence (P27361 whole entry): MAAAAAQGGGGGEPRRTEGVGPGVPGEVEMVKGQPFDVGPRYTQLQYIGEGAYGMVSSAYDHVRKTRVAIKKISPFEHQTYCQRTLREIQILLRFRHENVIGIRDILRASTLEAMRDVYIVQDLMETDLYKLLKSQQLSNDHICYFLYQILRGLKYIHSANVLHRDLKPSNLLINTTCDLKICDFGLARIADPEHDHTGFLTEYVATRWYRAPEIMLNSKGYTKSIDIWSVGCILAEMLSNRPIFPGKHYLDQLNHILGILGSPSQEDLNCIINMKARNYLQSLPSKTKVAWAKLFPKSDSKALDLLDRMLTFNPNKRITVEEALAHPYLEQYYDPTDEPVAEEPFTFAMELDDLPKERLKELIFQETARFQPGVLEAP
TRKA (h), sequence (P04629 33-796): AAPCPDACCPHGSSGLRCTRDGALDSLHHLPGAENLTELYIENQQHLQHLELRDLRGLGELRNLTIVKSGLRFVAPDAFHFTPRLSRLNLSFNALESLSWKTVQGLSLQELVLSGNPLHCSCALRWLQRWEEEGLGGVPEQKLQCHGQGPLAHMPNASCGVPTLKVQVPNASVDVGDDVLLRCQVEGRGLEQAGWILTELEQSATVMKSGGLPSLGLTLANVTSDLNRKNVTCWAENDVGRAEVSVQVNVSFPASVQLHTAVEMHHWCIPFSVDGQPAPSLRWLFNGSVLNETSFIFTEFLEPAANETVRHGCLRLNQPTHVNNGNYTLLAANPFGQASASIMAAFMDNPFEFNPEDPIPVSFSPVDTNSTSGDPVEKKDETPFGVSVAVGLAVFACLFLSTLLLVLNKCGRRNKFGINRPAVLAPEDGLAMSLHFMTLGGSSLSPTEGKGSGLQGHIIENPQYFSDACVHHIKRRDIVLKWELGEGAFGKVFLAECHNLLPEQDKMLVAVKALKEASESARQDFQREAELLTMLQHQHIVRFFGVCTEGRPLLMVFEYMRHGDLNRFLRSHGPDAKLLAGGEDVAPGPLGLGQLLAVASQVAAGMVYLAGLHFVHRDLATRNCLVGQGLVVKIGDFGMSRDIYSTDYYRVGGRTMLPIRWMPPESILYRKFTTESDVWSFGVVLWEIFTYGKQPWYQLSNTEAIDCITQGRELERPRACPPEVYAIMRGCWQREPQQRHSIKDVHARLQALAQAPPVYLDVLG
GRK3/BARK2 (h) (ADRBK2), sequence (P35626 whole entry): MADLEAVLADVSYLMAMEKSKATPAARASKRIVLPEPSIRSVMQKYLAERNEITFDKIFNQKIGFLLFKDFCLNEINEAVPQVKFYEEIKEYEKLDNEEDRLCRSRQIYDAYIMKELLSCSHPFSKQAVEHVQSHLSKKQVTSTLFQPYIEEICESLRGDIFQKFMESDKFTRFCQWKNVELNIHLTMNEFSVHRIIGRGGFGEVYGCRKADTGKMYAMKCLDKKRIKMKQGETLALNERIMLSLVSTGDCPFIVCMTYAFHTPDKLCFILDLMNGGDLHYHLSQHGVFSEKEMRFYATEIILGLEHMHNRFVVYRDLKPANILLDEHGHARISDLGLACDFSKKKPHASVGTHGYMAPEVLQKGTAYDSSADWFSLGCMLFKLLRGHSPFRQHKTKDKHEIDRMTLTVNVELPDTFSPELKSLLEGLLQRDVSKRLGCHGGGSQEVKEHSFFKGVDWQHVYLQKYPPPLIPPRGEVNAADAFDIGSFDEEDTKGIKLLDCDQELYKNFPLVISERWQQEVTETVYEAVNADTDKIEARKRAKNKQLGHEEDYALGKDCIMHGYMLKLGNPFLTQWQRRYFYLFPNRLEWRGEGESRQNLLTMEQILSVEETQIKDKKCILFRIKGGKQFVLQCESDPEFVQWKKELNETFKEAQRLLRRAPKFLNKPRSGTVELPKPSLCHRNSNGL

On to `COc1ccncc1-c1ccc2[nH]nc(C(=O)NCC3CCN(Cc4ccc(C(=O)O)o4)CC3)c2c1` [Compound 21, 5-({4-[({[5-(4-Methoxypyridin-3-yl)-1H-indazol-3-yl]carbonyl}amino)methyl]piperidin-1-yl}methyl)furan-2-carboxylic acid formate], for which, at human GSK-3β (setting [1]), the IC50 came out at 0.01 µM. Further, the inhibition at 10 µM on CK1alpha (h) was 2%; on DCAMKL1 (h), 0%; at DLK1 (h) (MAP3K12) it was 46%; on ERK1 (h), 81%; at EphB2 kinase (h) it was 2%; at FGFR1 kinase (h), 13%. For the same compound, the inhibition at 10 µM on Fyn kinase (h) was 10%; on GRK3/BARK2 (h) (ADRBK2) it was 4%; at HGK (h) (MAP4K4), 99%; on IRAK4 (h), 18%; on JAK1 (h), 10%; on RSK2 (h), 20%. The inhibition at 10 µM was found to be 54% at TAOK2 (TAO1) (h); 4% on TRKA (h); 100% on CDK2 (h) (cycA); 99% on DYRK1a (h); 94% at PCTAIRE1 kinase (h). In addition, the “% inhibition of control values, AMPKalpha” value (from here on “% inhibition … AMPKalpha”) in the assay on AMPKalpha was 70%.
`COc1ccc2[nH]nc(C(=O)NCC3CCN(CCc4ccc(O)cc4)CC3)c2c1` [Compound 1, N-({1-[2-(4-hydroxyphenyl)ethyl]-piperidin-4-yl}methyl)-5-methoxy-1H-indazole-3-carboxamide]: the “% Inhibition [10 μM]” value at human GSK-3β (setting [2]) is 94%. In addition, the inhibition at 10 µM at human GSK-3β (setting [2]) was above 90%; at CK1alpha (h) it was 15%; at DCAMKL1 (h) it was 4%; on DLK1 (h) (MAP3K12), 10%; on ERK1 (h), 35%; at EphB2 kinase (h), 0%. The inhibition at 10 µM on FGFR1 kinase (h) was found to be 6%; on Fyn kinase (h), 13%; at GRK3/BARK2 (h) (ADRBK2), 8%; on HGK (h) (MAP4K4), 17%; on IRAK4 (h), 0%; on JAK1 (h), 0%. The inhibition at 10 µM at RSK2 (h) came to 3%; at TAOK2 (TAO1) (h), 41%; on TRKA (h) it was 10%; at CDK2 (h) (cycA), 27%; at DYRK1a (h), 63%; at PCTAIRE1 kinase (h) it was 87%. The IC50 on human GSK-3β (setting [1]) is < 0.6 µM and 0.35 µM; at human GSK-3β (Table 5A, method of test I, second assay, read-out: IC50 [μM] Gsk3β) it was 0.35 µM; at CDK2 (h) (cycA) (setting [3]) it was 36 µM; on DYRK1a (h) (setting [3]) it was 2.9 µM; against PCTAIRE1 kinase (h) (setting [3]), 1.5 µM. Also, in the assay with AMPKalpha, the “% inhibition … AMPKalpha” value was found to be 13%.
As for `COc1ccc2[nH]nc(C(=O)NCC3CCN(Cc4ccc(C(=O)O)o4)CC3)c2c1` [Compound 24, 5-{[4-({[(5-Methoxy-1H-indazol-3-yl)carbonyl]amino}methyl)piperidin-1-yl]methyl}furan-2-carboxylic acid], the IC50 on human GSK-3β (setting [1]) turned out to be 0.4 µM. Besides, the inhibition at 10 µM is 0% at CK1alpha (h); 0% on DCAMKL1 (h); 0% on DLK1 (h) (MAP3K12); 22% at ERK1 (h); 0% at EphB2 kinase (h); 0% on FGFR1 kinase (h). In addition, the inhibition at 10 µM at Fyn kinase (h) was 3%; at GRK3/BARK2 (h) (ADRBK2), 0%; at HGK (h) (MAP4K4), 19%; on IRAK4 (h) it was 1%; at JAK1 (h) it was 1%; at RSK2 (h) it was 1%. The inhibition at 10 µM on TAOK2 (TAO1) (h) was determined as 8%; at TRKA (h), 1%; on CDK2 (h) (cycA) it was 36%; at DYRK1a (h) it was 59%; on PCTAIRE1 kinase (h), 1%. Also, the “% inhibition … AMPKalpha” value with AMPKalpha came out at 21%.
